From patent US20160271178A1, “NANOPARTICLE-CONTAINING HYDROGELS” (priority 2013, published 2016)

Tested on: P. aeruginosa
Assay: Bacterial suspension assay (OD measurement)
Type: cell-based
Details: tetracycline 10 and 20 μg/mL; 24 h
Procedure: Gels were prepared in 24-well sterile Nunc plates. 10 mM AgNO3 solution in 100 mM Tris-buffer (pH=8.5) was freshly prepared and used to dissolve the peptide to a final concentration of 10 mg/mL. The resultant solution was sonicated for 15-20 s to ensure complete dissolution of the peptide. 400 μL of the peptide solution was then aliquoted into each well and allowed to spread evenly on the surface. […] Prior to use, the plates were exposed to short-wavelength UV at 254 nm for 5 minutes to allow Ag NP formation. For the control gels, 100 mM Tris buffer without AgNO3 was used for Ac-LK6—NH2 hydrogel preparation.
50 μL of bacterial stock was inoculated overnight in 5 mL of Luria-Bertani (LB) medium (pH=7.5), with constant shaking at 300 rpm at 37° C. The log-phase bacterial solution was then diluted in LB medium to obtain an O.D. of 0.07 (at 600 nm). This was used as the starting bacterial solution (0 hr reading) and 400 μL of the solution was dispensed into each well of the 24-well plate containing the hydrogels. […] Ac-LK6—NH2 hydrogels without Ag NPs and bacteria-only solutions served as the negative controls. […] For the O.D. readings, 100 μL of the bacterial solution was transferred into a transparent 96 well Nunc plate just before measurement, to prevent the hydrogel layer from influencing absorbance measurements. […]

For `CN(C)[C@@H]1C(O)=C(C(N)=O)C(=O)[C@@]2(O)C(O)=C3C(=O)c4c(O)cccc4[C@@](C)(O)[C@H]3C[C@@H]12` [tetracycline, Tetracycline], the “growth inhibition compared to the untreated control” value was “about 50%”.
